From publication PMC3638593, “1,4-dihydroxy-2-naphthoic Acid Induces Apoptosis in Human Keratinocyte: Potential Application for Psoriasis Treatment” (Evidence-based Complementary and Alternative Medicine : eCAM, 2013)
“And” between values parts separate entries of the source, which are not always exact repeats. Equal values may be shown once. Read-outs that look alike come from different tables or passages of the source.

Experiments:
Assay type in all cases: cell-based, human
HaCaT cells [1] = experiment: JC-1 staining, mitochondrial membrane potential
Experimental: After DHNA treatment, HaCaT cells were harvested and washed with PBS. Cells were then incubated in 1.5 μM JC-1 (5,5′,6,6′-tetrachloro-1,1′,3,3′-tetraethylbenzimidazolylcarbocyanine iodide, Molecular Probes) in PBS at 37°C for 15 min in the dark. Thereafter cells were washed, resuspended in PBS and then immediately analyzed on the FACSCanto flow cytometer. If mitochondrial membrane potential (MMP) depolarizes, JC-1 becomes a monomer and emits green fluorescence; when MMP polarizes, JC-1 becomes a polymer and emits red fluorescence. It indicates mitochondria depolarization by a decrease in red/green fluorescence intensity ratio.

HaCaT cells [2] = experiment: Cell cycle analysis (PI, flow cytometry); settings: 24 h, Figure 5(a)
Experimental: HaCaT cells were treated with DHNA for 24 h, fixed with 75% ice-cold ethanol at 4°C for 1 h and stained with PI/RNase solution (BD Pharmingen) for 15 min at room temperature in the dark. Stained cells were analyzed using the FACSCanto flow cytometer immediately. Cell cycle distribution was calculated with ModFit LT 3.1 (Verity Software House, Topsham, ME, USA).

HaCaT cells [3] = experiment: Annexin V/propidium iodide staining, flow cytometry; settings: for viability at 30 µM / viability at 60 µM / viability at 120 µM / viability at 240 µM: Homo sapiens, HaCaT, read-out: viable cells (FITC−/PI−, lower left)
Experimental: After DHNA treatment, HaCaT cells were resuspended in annexin V binding buffer (10 mM HEPES, 140 mM NaCl, and 2.5 mM CaCl2, pH 7.4) and then incubated with FITC-conjugated annexin V (Biosource International, Inc., USA), and 0.5 μg/mL propidium iodide (PI) for 15 min at room temperature in the dark. Cells were analyzed on a FACSCanto flow cytometer (BD Biosciences, San Jose, CA, USA) immediately and then analyzed using WinMDI 2.9 (developed by Dr. J. Trotter, Scripps Institute, La Jolla, CA, USA). The total number of early (FITC+/PI−) and late (FITC+/PI+) apoptotic cells was assessed. In another experiment, HaCaT cells were preincubated with 40 μM pan-caspase inhibitor Z-VAD-FMK (BD Pharmingen, San Diego, CA, USA) for 1 h before exposure to DHNA.

[4] = system: IL-1α release from NCTC 2544 cells; experiment: IL-1α release assay (ELISA)
Experimental: NCTC 2544 cells were seeded and treated with various concentrations of DHNA or dithranol for 72 h. After incubation, the microplate was centrifuged and conditioned medium was collected to determine the extracellular IL-1α (IL-1α release) using an IL-1α ELISA kit (Diaclone Research, France). All other steps were then according to the manufacturer's protocol. Results were expressed in pg/mL.

HaCaT cells [5] = experiment: Proliferation assay (sulphorhodamine B) on HaCaT; settings: for IC50: Homo sapiens, read-out: IC50 on growth
Text: The spontaneously immortalized human epidermal keratinocyte HaCaT cells were purchased from China Centre for Type Culture Collection, Wuhan, China. The human foreskin fibroblast Hs-68 cells were purchased from the American Type Culture Collection (Manassas, VA, USA). The human undifferentiated keratinocyte NCTC 2544 cells were provided by Interlab Cell Line Collection (Genoa, Italy) and the immortalized human epidermal melanocyte PIG1 cells were a gift from Dr Caroline Le Poole (Loyola University Chicago, Maywood, IL, USA). HaCaT and Hs-68 cells were maintained in DMEM, NCTC 2544 in RPMI 1640 and PIG1 cells in Medium 254 with Human Melanocyte Growth Supplement-2, respectively. All cells were cultured in complete medium containing 10% FBS, 100 μg/mL of streptomycin, and 100 U/mL of penicillin (Gibco Laboratories) at 37°C in a humidified atmosphere of 5% CO2. Cell culture experiments were carried out at 60–80% confluent.
The ethyl acetate extract (EA) of Rubia cordifolia L. was isolated as described. 1,4-dihydroxy-2-naphthoic acid (98%), dithranol (≥90%), and EA were dissolved in DMSO as stock. All cells were seeded and treated with various concentrations of DHNA, dithranol or EA. After treatment, cells were fixed with cold 50% trichloroacetic acid and incubated 1 h at 4°C. Cell was then washed with deionized water, air-dried, and stained with 0.4% (w/v) sulphorhodamine B for 30 min at room temperature. Unincorporated dye was removed with 1% acetic acid wash and the cell was again air-dried. Incorporated dye was then solubilized in 10 mM Tris base and absorbance was measured at 565/690 nm using a Sunrise microplate spectrophotometer (Tecan, Switzerland). IC50 were determined using GraphPad Prism 5.0 (GraphPad Software, San Diego, CA, USA).

HaCaT cells [6] = experiment: Hoechst 33342 fluorescent staining for morphological evaluation; settings: 72 h
Experimental: After DHNA treatment, HaCaT cells were fixed in 4% paraformaldehyde for 30 min, washed with phosphate-buffered saline (PBS) and then stained with 2 μg/mL Hoechst 33342 (Molecular Probes, Eugene, OR, USA) for 15 min at room temperature in the dark. Morphology was evaluated using an Axiophot fluorescence microscope (Carl Zeiss, Oberkochen, Germany).

SMILES: O=C(O)c1cc(O)c2ccccc2c1O [DHNA, 1,4-dihydroxy-2-naphthoic acid]
- MMP (red/green JC-1 fluorescence ratio) compared with vehicle control (HaCaT cells [1]; 30 μM/6.13 μg/mL, 24 h): 103.3%
- MMP (red/green JC-1 fluorescence ratio) compared with vehicle control (HaCaT cells [1]; 30 μM/6.13 μg/mL, 48 h): 95.5%
- MMP (red/green JC-1 fluorescence ratio) compared with vehicle control (HaCaT cells [1]; 240 μM/49.01 μg/mL, 24 h): 35.4%
- MMP (red/green JC-1 fluorescence ratio) compared with vehicle control (HaCaT cells [1]; 240 μM/49.01 μg/mL, 48 h): 29.2%
- G0/G1 cell population (HaCaT cells [2]; 60 μM (12.25 μg/mL)): 39.3%
- G2/M phase cells (HaCaT cells [2]; 60 μM (12.25 μg/mL)): 12.4%
- G0/G1 cell population (HaCaT cells [2]; 120 μM (24.5 μg/mL)): 51.0%
- G2/M phase cells (HaCaT cells [2]; 120 μM (24.5 μg/mL)): 9.4%
- S phase cells (HaCaT cells [2]; 120 μM (24.5 μg/mL)): 39.6%
- sub-G0/G1 population (HaCaT cells [2]; 120 μM (24.5 μg/mL)): 19.7%
- total apoptotic fraction (early plus late apoptotic cells) (HaCaT cells [3]; 30 μM/6.13 μg/mL, 9 h): 10.4%
- total apoptotic fraction (early plus late apoptotic cells) (HaCaT cells [3]; 30 μM/6.13 μg/mL, 24 h): 13.7%
- total apoptotic fraction (early plus late apoptotic cells) (HaCaT cells [3]; 240 μM/49.01 μg/mL, 9 h): 45.5%
- total apoptotic fraction (early plus late apoptotic cells) (HaCaT cells [3]; 240 μM/49.01 μg/mL, 24 h): 89.7%
- viability at 30 µM (HaCaT cells [3]; 9 h): 88.9%
- viability at 30 µM (HaCaT cells [3]; 24 h): 85%
- viability at 60 µM (HaCaT cells [3]; 9 h): 86.2%
- viability at 60 µM (HaCaT cells [3]; 24 h): 77.5%
- viability at 120 µM (HaCaT cells [3]; 9 h): 81.8%
- viability at 120 µM (HaCaT cells [3]; 24 h): 50.2%
- viability at 240 µM (HaCaT cells [3]; 9 h): 44.3%
- viability at 240 µM (HaCaT cells [3]; 24 h): 8.8%
- IL-1α release at IC50 on NCTC 2544 keratinocytes ([4]; 46.80 μM or 9.56 μg/mL, 72 h): no significant IL-1α was released
- higher concentration needed for IL-1α release than dithranol ([4]; NCTC 2544, 72 h, DHNA versus dithranol): ~ 30 times
- concentration at which IL-1α release is significantly induced ([4]; NCTC 2544, 72 h, versus vehicle control): 60 μM and 12.25 μg/mL
- IC50 (HaCaT cells [5]; incubation 48 h): 111 µM and 22.8 µg/mL
- IC50 (HaCaT cells [5]; incubation 72 h): 38.9 µM and 7.95 µg/mL
- less potent than dithranol in inhibiting keratinocytes growth (HaCaT cells [5]; compared with dithranol): ~ 4 times
- nuclear morphology (Hoechst 33342) (HaCaT cells [6]; 120 μM (24.5 μg/mL)): light blue/white fluorescence was emitted from the nuclei of all cells
- nuclear fragmentation (Hoechst 33342) (HaCaT cells [6]; 30, 60 and 120 μM): nuclear fragmentation was also observed
- nuclear morphology (Hoechst 33342) (HaCaT cells [6]; 30 and 60 μM): chromatin condensation
